In patent US4590284A, “Pineapple ketone 1'-alkoxyalkyl derivatives” (Hercules Incorporated, priority 1985, dated 1986):
Like-named read-outs stand apart in the source and are kept apart here.

Legend:
[1] = fragranced soaps, six months of storage; cited from earlier work
[2] = Water solubility; format: physicochemical; conditions: in words
[3] = 0 min
Method: (§1) The disappearance of both compounds is measured by gas chromatography using a six foot long, one-eighth inch diameter column having 15 percent by weight polyethylene glycol with an average molecular weight of 20,000 (Carbowax-20 M, Trademark) on particles of 80 by 100 mesh diatomaceous earth (Chromasorb W, Trademark) and using helium feed at 28 cc. per minute while heating from 100° to 210° C. at 8° per minute. Ten percent solutions of each compound in toluene are stirred at equal rates in the presence of air at ambient temperatures.

[4] = cited from earlier work
[5] = physchem; conditions: toluene
Method: as §1

SMILES: CC=Cc1ccc(OC(C)OCC)c(OC)c1 (stereo not drawn) [1'-ethoxyethyl ether of isoeugenol]
- stability to discoloration [1]: stable to discoloration

SMILES: CC=Cc1ccc(O)c(OC)c1 [isoeugenol]
- stability to discoloration [1]: causes discoloration

SMILES: CC1=C(O)C(=O)C(C)O1 (stereo not drawn) [Pineapple Ketone, 2,5-dimethyl-4-hydroxy-3(2H)-furanone]
- water solubility [2]: water soluble
- % Remaining [3]: 100%
- half-life ([4]; pH 4): 120 days
- half-life ([4]; pH 7): 12 days
- remaining at 15 h [5]: 24%
- remaining at 41 h [5]: 18%
- remaining at 115 h [5]: 6%
- remaining at 138 h [5]: 4%

SMILES: CCOC(C)OC1=C(C)OC(C)C1=O (stereo not drawn) [2,5-Dimethyl-4-[(1'-ethoxy)ethoxy]-3(2H)-furanone]
- % Remaining [3]: 100%
- remaining at 17 h [5]: 95%
- remaining at 41 h [5]: 93%
- remaining at 116 h [5]: 44%
- remaining at 137 h [5]: 38%
